Measured values from patent US7741294B1, “Non-standard nucleobases implementing the isocytidine and isoguanosine hydrogen bonding patterns” (priority 2005, dated 2010).
Where two headings read alike, the source gives them in different places.

Tests used:
[1] = pKa by spectrophotometric titration; assay type: physicochemical; settings: pH 2.8 to 13.7, 240-350 nm
Procedure: The pKa of the nucleoside analog was determined by spectrophotometric titration (pH 2.8 to 13.7) [Kazimierczuk, Z., Shugar, D. (1974) Acta Biochim. Pol., 21, 455-463.1 at 240-350 nm to give values for pK1 and pK2 as 4.3 (±0.1) and 9.9 (±0.2), respectively.

[2] = keto:enol tautomeric equilibrium from UV spectra in dioxane:water mixtures, extrapolated to pure water; assay type: physicochemical; settings: log fraction of enol vs ET(30), extrapolated to ET(30) of pure water (63.1)
Source text: The procedure of Voegel et al. [Voegel, J. J., von Krosigk, U., Benner, S. A. (1993) J. Org. Chem., 58, 7542-7547.] was then used to estimate a value of the keto:enol tautomers in pure water for dC7 isoG. This procedure exploits the fact that in nonpolar solvents, the UV spectra for both disoG and C7 isoG shift from their form in pure water (which resembles the N-methylated derivatives) to a form that resembles the UV spectra of the O-methylated derivatives. This is interpreted as evidence that the tautomeric equilibrium shifts from one favoring the keto tautomer in pure water to one favoring the enol tautomer in pure dioxane.
To obtain quantitative data, the ratio of the extinction coefficients at two wavelengths (λ=296 and 255 nm for disoG and λ=305 and 254 nm for dC7 isoG), chosen to maximize the difference between the keto and enol forms, was chosen as a metric for the tautomeric equilibrium constant in dioxane:water mixtures in varying proportions. This was plotted against the Dimroth ET(30) value, which provides a measure of the local dielectric constant [Kosower, E. M. (1958) J. Am. Chem. Soc., 80, 3253-3260] [Dimroth, v. K., Reichardt, C., Siepmann, T., Bohlmann, F. (1963) Liebigs Ann. Chem., 661, 1-37.] [Reichardt, C., Harbusch-Goernert, E. (1983) Liebigs Ann. Chem., 721-743] [Gordon, A., Katritzky, A. R. (1968) Tetrahedron Lett., 23, 2767-2770.] […]

[3] = comparison value for the natural nucleoside; cited from earlier work

pK1 [1] | pK2 [1] | KTAUT (=[keto]/[enol]) [2] | Structure (SMILES) | KTAUT (=[keto]/[enol]) [3]
4.3 (±0.1) | 9.9 (±0.2) | ≈ 10^3 | Nc1[nH]c(=O)nc2c1ccn2[C@H]1C[C@H](O)[C@@H](CO)O1 [dC7 isoG, 2′-deoxy-7-deaza-isoguanosine] | –
– | – | – | Nc1nc2c(ncn2[C@@H]2O[C@H](CO)[C@@H](O)[C@H]2O)c(=O)[nH]1 [guanosine] | 10^4-10^5
